{"source": "patent US20030152646A1", "about": "“Method of treating conditions caused by activated microglia” (priority 2001, published 2003)", "key": {"[1]": {"system": "primary cortical neurons", "assay": "Neuron survival of primary cortical neurons treated with SIN-1", "format": "cell-based, rat", "conditions": "50 μM SIN-1, 2 μM FeTMPyP, 48 hr", "method": "To validate the specificity and effectiveness of the peroxynitrite decomposition catalyst FeTMPyP, this catalyst was further tested with neuron cultures treated with SIN 1, an exogenous NO and superoxide donor that, consequently, generates peroxynitrite under physiological conditions [Hogg, 1992]. Primary cortical neurons were treated with 50 μM SIN-1 in the presence or absence of 2 μM FeTMPyP for 48 hr.\nNeuron cultures were derived from […] (embryonic day 17) Fishes 344 rat cerebral cortices detailed previously (Banker and Goslin, 1988; Rozovsky et al., 1994) and plated at 5×10^4 viable cells/well is poly-D-lysine (Sigma) coated 24-well plates (Costar). […]\nFollowing treatment, culture inserts containing microglia were removed and neurons were stained with 10 jig/ml fluorescein diacetate (FDA, Sigma) for 10 min. […] Since neuron deaths occur primarily in the region directly underneath the microglia-containing culture inserts (see FIG. 6D), for quantification, eight images at the center of each well were taken with a Nikon TE300 fluorescent microscope and analyzed with the IP Lab imaging software (version 3.54, Scanalytics, Fairfax, Va.). Viable neurons were quantified by the area covered by green fluorescence, after the establishment of a linear relationship between the numbers of stained cells and the green fluorescent area. […]"}, "[2]": {"system": "nitric oxide (NO) production", "assay": "Nitrite measurement in microglia-neuron co-cultures treated with Aβ1-42 and interferon γ", "format": "cell-based, rat", "conditions": "5 μM Aβ1-42 + 10 ng/ml interferon γ, 48 hour; FeTMPyP 2 μM", "method": "Nitric oxide (NO) production was determined indirectly through the assay of nitrite (NO2), a stable metabolite of NO, based on the Griess reaction (Huygen, 1970; Green et al., 1982; Ding et al., 1988). Briefly, a 50 μl aliquot of conditioned media was mixed with an equal volume of Griess reagent (0.1% N-(1-naphthyl)ethylenediamine dihydrochloride, 1% sufanilamide, and 2.5% phosphoric acid, all from Sigma), and incubated for 10 min at 22° C. The absorbance was read at 550 nm on a microtiter plate reader (Spectra MAX 250, Molecular Devices, Sunnyvale, Calif.). Nitrite concentrations were calculated from a standard curve of NaNO2 (Sigma) ranging from 0 to 100 μM. Background NO2 was subtracted from the experimental values."}, "[3]": {"system": "nitric oxide (NO) production", "assay": "Nitrite measurement (Griess reaction) in LPS-treated microglia-neuron co-cultures", "format": "cell-based, rat", "conditions": "for effect on nitrite accumulation / NO production: 100 ng/ml LPS, 48 hours, same concentrations as for neuron survival"}, "[4]": {"system": "microglia-neuron co-cultures", "conditions": "100 ng/ml LPS"}, "[5]": {"system": "TNF-α secretion", "assay": "TNF-α Elisa of culture supernatants of LPS-treated microglia-neuron co-cultures", "format": "cell-based, rat", "conditions": "100 ng/ml LPS, 48 hours; for effect on TNF-α secretion: PEN 500 μM, THA 200 μM", "method": "Levels of secreted TNF-α in culture supernatants were determined by an enzyme-linked immuno-sorbent assay (Elisa) kit following manufacturer's instructions (BioSource International, Camarillo, Calif.)."}, "[6]": {"system": "microglia-neuron co-cultures"}, "[7]": {"system": "neurons", "assay": "TUNEL staining of neurons from Aβ1-42-treated microglia-neuron co-cultures", "format": "cell-based, rat", "conditions": "5 μM Aβ1-42 + 10 ng/ml interferon γ, 24 hours", "method": "DNA cleavage in apoptotic nuclei was detected with In Situ Cell Death Detection Kit as described by the manufacturer (Roche Molecular Biochemicals, Indianapolis, Ind.). Briefly, cells were fixed with paraformaldehyde (4% in PBS, pH 7.4) and permeablized (0.1% Triton X-100 in 0.1% sodium citrate). After incubation for 1 hr at 37° C. in terminal deoxynucleotidyl transferase (TdT) reaction mixture, signals were visualized under a fluorescence microscope (excitation/emission wavelengths: 450-500 nm/515-565 nm). Samples were further blotted with alkaline phosphatase-conjugated anti-fluorescein antibody. Following color reaction, samples were analyzed under a light microscope."}, "[8]": {"system": "microglia cells", "assay": "Superoxide generation by LPS-activated microglia (EPR, DMPO spin trap)", "format": "cell-based, rat", "conditions": "100 ng/ml LPS", "method": "To monitor the generation of superoxide by activated microglia, Electron Paramagnetic Resonance (EPR) measurements were performed with 5,5-dimethyl-1-pyrroline-N-oxide (DMPO) as a superoxide spin trap. To confirm that the EPR signal is caused by superoxide, either superoxide dismutase (SOD) or DMSO, which competes with DMPO for hydroxyl radical, were added to the microglia cells together with LPS.\nFor EPR measurements, microglia cells (100,000) with or without LPS treatment were incubated in 200 μl culture medium containing 120 mm DMPO. After 15 minutes, the medium was removed and analyzed by EPR. EPR spectra were recorded on a Bruker ECS106 spectrometer with the following settings: receiver gain: 5×10^5; microwave power: 20 mW; microwave frequency: 9.81 GHz; modulation amplitude: 1 G; time constant: 1.3 seconds; scan time: 87 seconds; scan width: 80 G. The DMPO-OH signal generated from […] were quantified by comparison with TEMPOL standard after doubly integration of both signals. All scans shown are an accumulation of 7 scans."}}, "note": "Entries after “also recorded” stand apart in the source; their conditions may differ."}
{"molecule": "C[n+]1ccc(-c2c3nc(c(-c4cc[n+](C)cc4)c4ccc([n-]4)c(-c4cc[n+](C)cc4)c4nc(c(-c5cc[n+](C)cc5)c5ccc2[n-]5)C=C4)C=C3)cc1.[Cl-].[Fe+3]", "note": "[FeTMPyP, 5,10,15,20-Tetrakis(N methyl-4′-pyridyl)porphinato iron (III) chloride]", "values": [{"measurement": "protection of neurons against SIN-1 induced peroxynitrite toxicity", "setting": "[1]", "result": "effectively protected"}, {"measurement": "effect on nitric oxide production", "setting": "[2]", "result": "without compromising nitric oxide production"}, {"measurement": "effect on nitrite accumulation / NO production", "setting": "[3]", "result": "without decreasing NO production"}, {"measurement": "optimal concentration of protective action against LPS-induced microglial neurotoxicity", "setting": "[4]; dose-dependent", "result": 2, "unit": "µM"}]}
{"molecule": "Cl.O=S(=O)([O-])c1ccc(-c2c3nc(c(-c4ccc(S(=O)(=O)O)cc4)c4ccc([nH]4)c(-c4ccc(S(=O)(=O)O)cc4)c4nc(c(-c5ccc(S(=O)(=O)O)cc5)c5ccc2[nH]5)C=C4)C=C3)cc1.[Fe]", "note": "[FeTPPS, 5,10,15,20-Tetrakis(4-sulfonatophenyl)prophyrinato iron (III) chloride]", "values": [{"measurement": "effect on nitrite accumulation / NO production", "setting": "[3]", "result": "without decreasing NO production"}]}
{"molecule": "CNC(=N)NCCC[C@H](N)C(=O)O", "note": "[L-NMMA, N^G-Monomethyl-L-arginine]", "values": [{"measurement": "effect on nitrite accumulation / NO production", "setting": "[3]", "result": "completely blocked"}, {"measurement": "viable neurons", "setting": "[4]; 48 hours, 1 mM L-NMMA added at the same time with LPS", "result": "92.4±7.4 % of control"}, {"measurement": "reduction of TNF-α secretion", "setting": "[5]; 1 mM L-NMMA", "result": 35, "unit": "%"}]}
{"molecule": "CC(=O)CCCCn1c(=O)c2c(ncn2C)n(C)c1=O", "note": "[pentoxifylline]", "values": [{"measurement": "effect on nitrite accumulation / NO production", "setting": "[3]", "result": "little effect; also recorded: did not decrease nitrite/NO generation"}, {"measurement": "effect on TNF-α secretion", "setting": "[5]", "result": "inhibits"}]}
{"molecule": "O=C1CCC(N2C(=O)c3ccccc3C2=O)C(=O)N1", "note": "(stereo not drawn) [thalidomide]", "values": [{"measurement": "effect on nitrite accumulation / NO production", "setting": "[3]", "result": "inhibited"}, {"measurement": "effect on TNF-α secretion", "setting": "[5]", "result": "inhibited"}]}
{"molecule": "Aβ1-42: amyloid β-peptide 1-42, aggregated (fibrillar), applied with 10 ng/ml interferon γ as priming factor", "values": [{"measurement": "death of neurons", "setting": "[6]", "result": "over 80%"}, {"measurement": "neurotoxicity in the absence of microglia", "setting": "[6]", "result": "did not result in neurotoxicity"}, {"measurement": "TUNEL-labeled neurons", "setting": "[7]", "result": "majority"}]}
{"molecule": "Lipopolysaccharide [LPS]", "values": [{"measurement": "peak of superoxide generation", "setting": "[8]", "result": 12, "unit": "h"}, {"measurement": "beginning of nitrite generation", "setting": "[3]", "result": 6, "unit": "h"}, {"measurement": "peak of nitrite generation", "setting": "[3]", "result": "approximately 14 hours"}]}
